Experimental findings from US20240091242A1, “LIPIDS THAT REDUCE LUNG DAMAGE, IMPROVE PULMONARY FUNCTION AND DECREASE PRO-INFLAMMATORY CYTOKINES” (Signpath Pharma, Inc., priority 2021, published 2024) are described below.

Molecules are shown by their SMILES. “Also recorded” adds a separate entry of the source.

In data set [1] the test system is murine LPS ARDS model. Nature of the data set: Body weight and lung weight, murine LPS ARDS model. In kind it is in vivo, mouse. Conditions: for body weight loss: 72-hour study. On the procedure:
C57B16/N mice were obtained from Charles River Laboratories (Montreal, Quebec). Male mice, 20-25 g of body weight, were used throughout the studies. Animals were housed in specific pathogen[…]free conditions, and all experiments were approved by Institutional Animal Care and Use Committee (IPST_SL20200402-1). Animal studies are reported in compliance with […] guidelines.
(§1) In the ARDS group, mice received Escherichia coli O111:B4 lipopolysaccharide (50 μg in 0.05 mL saline, i.t.), while, in the control group, the animals received an instillation of saline (0.05 mL, i.t.). For intratracheal instillation, mice were slightly anesthetized with isoflurane.
(§2) The lipid SPPCT-800 was dissolved in water (low dose—2 mg/ml; high dose—20 mg/ml). For the 24-hour study, two treatment approaches were used. Mice received a single dose of SPPCT-800 (200 mg/kg, per gavage) as prevention (30 minutes before the LPS instillation), or as a single dose of either 20 mg/kg or 200 mg/kg as therapy (3-hour after the LPS instillation). For the 72-hour study, mice received a total of 8 treatments of SPPCT-800 (200 mg/kg) starting at 3-hour after the LPS instillation. Disease progression in mice was assessed by the evaluation of pulmonary functions, blood oxygen saturation, and body weight change. On the terminal day of each study (24 hours or 72 hours), measurement of cytokine levels in the plasma and BALF, and histopathology evaluations were done.
(§3) Statistical Analysis. Results are expressed as means±SEM. Comparisons were made on normally distributed data using ANOVA, followed by a Fisher post hoc test to assess the difference between LPS+vehicle group with GraphPad Prism Software version 8.0 (San Diego, CA, USA). Differences were considered statistically significant when P values were less than 0.05. (* Shown difference versus Sham animals and # shown difference versus LPS+Vehicle group. * Means P<0.05, ** P<0.01, *** P<0.001 while # means P<0.05, ##P<0.01 and ###P<0.001).

In data set [2] the test system is murine LPS ARDS model. Nature of the data set: BALF protein content and cell counts, murine LPS ARDS model. In kind it is in vivo, mouse. The method, then:
as §1, §2
Differential Cell Counts in BALF. The left lung was clamped while 0.9 mL of cold PBS 1×, Protease Inhibitor 1× (SigmaFast®) solution (3×300 μL) was injected so bronchoalveolar lavage fluid (BALF) from the right lobe of the lungs could be collected. The protein assay was performed according to the manufacturer's instruction BCA Protein Assay (Pierce™-#23227). Briefly, a dilution factor of 5 was used (1 part of BALF: 4 part of PBS 1×). 10 μL, of the diluted sample was added into the microplate wells. 200 μL of the working reagent was added into each well. The plate was covered, incubated at 37° C. for 30 minutes. After a cool-down period, the absorbance at 562 nm was rapidly measured using a monochromatic spectrophotometer (SpectraMAX ® plus—Molecular Devices). The total BALF protein content was reported by multiplying the protein concentration by the dilution factor, and then multiplying by the total of BALF volume collected.
as §3

The nature of data set [3]: Toxicity (non-toxic dose). Conditions: in vivo.
Data set [4] can be described thus: Detectable activity after a single dose. In kind it is in vivo.

Turning to `CCCCCCCCCCCCCC(=O)OCC(COP(=O)([O-])OCC(COC(=O)CCC)OC(=O)CCC)OC(=O)CCCCCCCCCCCCC.CCCCCCCCCCCCCC(=O)OCC(COP(=O)([O-])OCC(COC(=O)CCC)OC(=O)CCC)OC(=O)CCCCCCCCCCCCC.[Mg+2]` (stereo not shown) [SPPCT-800], in the data set with murine LPS ARDS model [1] (48 hours and 72 hours after LPS treatment), the “body weight loss versus LPS (in words)” value is “significantly reduced”. In the data set on murine LPS ARDS model [1] (72 hours), the “wet lung weight/dry lung ratio” value is recorded as “decreased”. Further, the “lung index (lung weight/body weight×100)” value with murine LPS ARDS model [1] (72 hours, P<0.05) is “reduced; also recorded: significantly decreased”. In addition, the lung weight result in the data set with murine LPS ARDS model [1] (animals sacrificed at 72 hours, P=0.1100) was “tended to reduce”. In addition, the body weight loss in the data set with murine LPS ARDS model [1] (at 24 hours after LPS) is 14%; in the data set with murine LPS ARDS model [1] (at 48 hours after LPS, P<0.05 vs untreated LPS group), 14%; in the data set on murine LPS ARDS model [1] (at 72 hours after LPS, P<0.05 vs untreated LPS group), 8%. The BALF protein content result in the data set on murine LPS ARDS model [2] (24 hours after LPS, single dose given as a preventive, P<0.05) is “significant reduction”. The BALF protein levels result in the data set on murine LPS ARDS model [2] (at 72 hours, multidose treatment) is given as “major reductions”. The BALF neutrophil counts entry with murine LPS ARDS model [2] (at 72 hours, multidose treatment, P=0.1493, not statistically significant) was “reductions”. The “BALF total cell count” value in the data set on murine LPS ARDS model [2] (at 72 hours, multidose treatment, P=0.1714, not statistically significant) is on record as “reductions”. In data set [3], the non-toxic dose entry was “up to 800 mg/kg per day”. Also, the “single dose with detectable activity” value in data set [4] turned out to be 1 mg/kg.
